Legend:
Experiment in all cases: relative viability (nuclei count vs DMSO), 5 days (fraction); higher = more cells survive
Tozasertib + Dasatinib = compound: Cc1cc(Nc2cc(N3CCN(C)CC3)nc(Sc3ccc(NC(=O)C4CC4)cc3)n2)n[nH]1 [Tozasertib] + Cc1nc(Nc2ncc(C(=O)Nc3c(C)cccc3Cl)s2)cc(N2CCN(CCO)CC2)n1 [Dasatinib] (partner 0.075 µM)
Method in brief: (§1)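 The day after seeding in 1536-well plates, lung cancer cell lines were treated by pin tool with a single drug, or with a fixed anchor-drug dose together with five library-drug doses (not always all listed) in √10 steps. After 5 days, a combined fix-and-stain solution (final 0.05% Triton X-100, 1% formaldehyde, 1 ug/ml Hoechst) was added. Nuclei counted on 4× images gave relative viability as treated counts over vehicle counts, reported as the median of duplicate plates.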

Tozasertib + Palbociclib = compound: Cc1cc(Nc2cc(N3CCN(C)CC3)nc(Sc3ccc(NC(=O)C4CC4)cc3)n2)n[nH]1 [Tozasertib] + CC(=O)c1c(C)c2cnc(Nc3ccc(N4CCNCC4)cn3)nc2n(C2CCCC2)c1=O [Palbociclib] (partner 0.5 µM)
Method in brief: as §1

Tozasertib + Vorinostat = compound: Cc1cc(Nc2cc(N3CCN(C)CC3)nc(Sc3ccc(NC(=O)C4CC4)cc3)n2)n[nH]1 [Tozasertib] + O=C(CCCCCCC(=O)Nc1ccccc1)NO [Vorinostat] (partner 1 µM)
Method in brief: as §1

Tozasertib + Navitoclax = compound: Cc1cc(Nc2cc(N3CCN(C)CC3)nc(Sc3ccc(NC(=O)C4CC4)cc3)n2)n[nH]1 [Tozasertib] + CC1(C)CCC(c2ccc(Cl)cc2)=C(CN2CCN(c3ccc(C(=O)NS(=O)(=O)c4ccc(N[C@H](CCN5CCOCC5)CSc5ccccc5)c(S(=O)(=O)C(F)(F)F)c4)cc3)CC2)C1 [Navitoclax] (partner 0.5 µM)
Method in brief: as §1

Tozasertib + OSI-027 = compound: Cc1cc(Nc2cc(N3CCN(C)CC3)nc(Sc3ccc(NC(=O)C4CC4)cc3)n2)n[nH]1 [Tozasertib] + COc1cccc2cc(-c3nc([C@H]4CC[C@H](C(=O)O)CC4)n4ncnc(N)c34)[nH]c12 [OSI-027] (partner 0.5 µM)
Method in brief: as §1

Cell Line	relative viability (Tozasertib + Dasatinib; first compound 0.004 µM)	relative viability (Tozasertib + Dasatinib; first compound 0.01265 µM)	relative viability (Tozasertib + Dasatinib; first compound 0.04 µM)	relative viability (Tozasertib + Dasatinib; first compound 0.1265 µM)	relative viability (Tozasertib + Palbociclib; first compound 0.004 µM)	relative viability (Tozasertib + Palbociclib; first compound 0.01265 µM)	relative viability (Tozasertib + Palbociclib; first compound 0.04 µM)	relative viability (Tozasertib + Palbociclib; first compound 0.1265 µM)	relative viability (Tozasertib + Vorinostat; first compound 0.004 µM)	relative viability (Tozasertib + Vorinostat; first compound 0.01265 µM)	relative viability (Tozasertib + Vorinostat; first compound 0.04 µM)	relative viability (Tozasertib + Vorinostat; first compound 0.1265 µM)	relative viability (Tozasertib + Navitoclax; first compound 0.004 µM)	relative viability (Tozasertib + Navitoclax; first compound 0.01265 µM)	relative viability (Tozasertib + Navitoclax; first compound 0.04 µM)	relative viability (Tozasertib + Navitoclax; first compound 0.1265 µM)	relative viability (Tozasertib + OSI-027; first compound 0.004 µM)	relative viability (Tozasertib + OSI-027; first compound 0.01265 µM)	relative viability (Tozasertib + OSI-027; first compound 0.04 µM)	relative viability (Tozasertib + OSI-027; first compound 0.1265 µM)
LXF-289	0.226	0.198	0.232	0.0943	0.63	0.6	0.561	0.583	0.731	0.702	0.533	0.252	0.964	0.889	0.807	0.588	0.695	0.731	0.779	0.441
NCI-H23	0.747	0.91	0.832	0.909	0.58	0.518	0.498	0.313	–	0.693	0.599	0.168	0.842	0.867	0.805	0.472	0.614	0.629	0.666	0.453
NCI-H322M	0.263	0.263	0.257	0.224	–	0.515	0.466	0.486	0.91	0.828	0.984	0.588	1.18	1.28	1.24	1.35	0.546	0.502	0.561	0.412
NCI-H441	0.655	0.643	–	0.474	0.222	0.186	0.213	0.203	0.852	0.823	0.845	0.766	0.761	0.543	0.483	0.55	0.57	0.647	0.568	0.6
NCI-H460	0.546	0.546	0.62	0.318	0.172	0.18	0.196	0.115	0.83	0.769	0.912	0.163	1.18	1.03	1.46	0.788	0.855	0.645	0.668	0.519
NCI-H520	0.265	0.203	0.209	0.138	0.231	0.228	0.231	0.173	0.814	0.747	0.575	0.224	1.08	1.03	1.17	0.602	0.356	0.26	0.254	0.234
NCI-H647	0.204	0.185	0.181	0.0838	0.457	0.398	0.425	0.299	0.729	0.377	0.384	0.172	1.06	1.15	1.03	0.882	0.836	0.763	0.763	0.33
NCI-H727	0.386	0.38	0.378	0.286	0.554	0.573	0.629	0.563	1.12	1.12	1.13	0.82	0.481	0.5	0.489	0.242	0.75	0.536	0.683	0.539
NCI-H838	0.304	0.307	0.225	0.256	0.238	0.213	0.25	0.171	0.716	0.713	0.502	0.235	1.26	1.14	1.4	1.14	0.485	0.354	0.426	0.257
NCI-H1355	0.691	0.706	0.843	0.49	0.362	0.424	0.457	0.391	0.594	0.571	0.669	0.516	0.867	0.917	1.15	0.768	0.368	0.383	0.458	0.343
NCI-H1395	0.423	0.343	0.438	0.357	0.613	0.612	0.632	0.56	0.944	0.641	0.643	0.353	1.28	1.13	1.06	0.825	0.7	0.6	0.646	0.437
NCI-H1437	0.453	0.254	0.372	0.434	0.327	0.267	0.316	0.19	0.851	0.792	0.769	0.481	1.05	0.974	1.09	0.87	1	0.794	0.874	0.606
NCI-H1650	0.311	0.377	–	0.167	0.328	0.287	0.365	0.207	0.517	0.462	0.68	0.391	–	0.981	1.24	0.936	0.689	0.602	0.621	0.302
NCI-H1651	0.433	0.371	–	0.234	0.54	0.515	0.539	0.519	0.603	0.56	–	0.361	1.17	1.05	1.18	1.07	0.888	0.645	–	0.666
NCI-H1666	0.793	0.71	0.803	0.554	0.644	0.62	0.663	0.612	0.988	1.06	1	0.961	0.948	0.863	0.918	0.87	0.859	–	0.814	0.765
NCI-H1734	0.422	0.444	0.452	0.314	0.361	0.308	0.364	0.306	0.711	0.741	0.649	0.245	0.851	0.761	0.834	0.504	0.597	0.596	0.557	0.435

Cell Line	relative viability (Tozasertib + Dasatinib; first compound 0.004 µM)	relative viability (Tozasertib + Dasatinib; first compound 0.01265 µM)	relative viability (Tozasertib + Dasatinib; first compound 0.04 µM)	relative viability (Tozasertib + Dasatinib; first compound 0.1265 µM)	relative viability (Tozasertib + Palbociclib; first compound 0.004 µM)	relative viability (Tozasertib + Palbociclib; first compound 0.01265 µM)	relative viability (Tozasertib + Palbociclib; first compound 0.04 µM)	relative viability (Tozasertib + Palbociclib; first compound 0.1265 µM)	relative viability (Tozasertib + Vorinostat; first compound 0.004 µM)	relative viability (Tozasertib + Vorinostat; first compound 0.01265 µM)	relative viability (Tozasertib + Vorinostat; first compound 0.04 µM)	relative viability (Tozasertib + Vorinostat; first compound 0.1265 µM)	relative viability (Tozasertib + Navitoclax; first compound 0.004 µM)	relative viability (Tozasertib + Navitoclax; first compound 0.01265 µM)	relative viability (Tozasertib + Navitoclax; first compound 0.04 µM)	relative viability (Tozasertib + Navitoclax; first compound 0.1265 µM)	relative viability (Tozasertib + OSI-027; first compound 0.004 µM)	relative viability (Tozasertib + OSI-027; first compound 0.01265 µM)	relative viability (Tozasertib + OSI-027; first compound 0.04 µM)	relative viability (Tozasertib + OSI-027; first compound 0.1265 µM)
NCI-H1755	0.44	0.486	0.474	0.312	0.456	0.461	0.442	0.442	0.749	0.782	0.744	0.675	0.978	0.977	1.02	0.875	0.661	0.636	0.725	0.601
NCI-H1793	0.387	0.36	0.377	0.285	0.307	0.312	0.367	0.295	0.785	0.654	0.931	0.267	0.492	0.501	0.453	0.33	0.229	0.214	0.358	0.228
NCI-H1915	0.376	0.298	0.313	0.264	0.515	0.498	0.535	0.465	0.505	0.564	0.512	0.439	0.767	0.765	0.773	0.623	0.669	0.592	0.658	0.569
NCI-H1944	0.217	0.217	0.206	0.147	0.311	0.308	0.332	0.273	0.557	0.519	0.427	0.204	0.96	1.05	1.02	0.695	0.471	0.397	0.422	0.247
NCI-H1975	0.492	0.407	0.342	0.308	0.59	0.598	0.623	0.622	0.706	0.706	0.72	0.583	1.14	1.2	1.23	1.1	0.968	0.758	–	0.683
NCI-H1993	0.729	0.456	0.636	0.537	0.622	0.63	0.681	0.743	0.754	0.824	1.11	0.408	0.901	0.884	0.927	0.651	0.485	0.505	0.569	0.524
NCI-H2009	0.307	0.292	0.266	0.213	0.254	0.201	0.247	0.164	0.772	0.696	0.735	0.578	1.21	1.16	1.17	1.17	0.635	0.614	0.668	0.51
NCI-H2023	0.562	0.506	0.572	0.318	0.409	0.384	0.417	0.243	0.547	0.674	0.518	0.16	1.04	0.983	1.05	0.924	0.391	0.325	0.488	0.285
NCI-H2085	0.235	0.231	0.244	0.228	0.462	0.455	0.464	0.475	0.797	0.714	–	0.603	1.14	1.12	1.13	0.816	0.769	0.726	0.828	0.695
NCI-H2087	0.82	0.858	1.12	0.63	0.248	0.204	0.231	0.128	0.477	0.537	0.544	0.382	1.01	0.872	1.1	0.644	0.638	0.576	0.64	0.444
NCI-H2126	0.587	0.674	0.674	0.485	0.354	0.405	0.372	0.339	0.797	0.808	0.915	0.781	0.842	0.802	0.963	0.865	0.777	0.728	0.773	0.657
NCI-H2170	0.565	0.501	0.546	0.445	0.402	0.382	0.391	0.337	0.764	0.887	0.69	0.427	0.556	0.565	0.583	0.557	0.639	0.713	0.792	0.628
NCI-H2228	0.493	0.493	0.546	0.232	0.994	0.764	0.671	0.453	0.668	0.402	0.585	0.49	0.717	–	1.23	1.06	0.703	0.506	0.528	0.29
NCI-H2347	0.344	–	0.262	0.281	0.384	0.457	0.472	0.413	0.586	0.643	0.57	0.664	0.921	0.761	0.901	0.755	0.447	–	0.369	0.389
NCI-H2405	0.251	0.124	0.19	0.197	0.558	0.538	0.498	0.527	1.16	0.809	1.02	0.594	0.795	0.95	0.671	0.871	0.616	0.676	0.642	0.698
